Source: patent publication US9833466B2, “Treatment of leukemia with histone deacetylase inhibitors” (Acetylon Pharmaceuticals Inc., priority 2014, dated 2017)
Entries after “also recorded” stand apart in the source; their conditions may differ.

Columns and labels:
[1] = test system: Kasumi-1; assay: Apoptosis by Annexin V / propidium iodide flow cytometry in Kasumi-1; type: cell-based; details: 96 hours; for apoptotic cells: combination with azacitidine vs single agent
Procedure: (§1) Briefly, the AML cell lines HL-60 (FIGS. 4A and 4D), Kasumi-1 (FIGS. 4B and 4E) and NB4 (FIGS. 4C and 4F) were treated with the indicated concentrations of compounds. In FIGS. 4A-C, surface levels of myeloid differentiation marker CD11b were determined by FACS at 72 hours post-treatment. […] In FIGS. 4D-F, apoptosis was assessed by flow cytometry by measuring Annexin V binding and cellular permeability to propidium iodide at 96 hours post-treatment. The relative fraction of cells that were alive, in early apoptosis, in late apoptosis, or dead was then determined.
(§2) Briefly, cells were treated with DMSO, Compound B, Compound A, or Compound E as a single agent or in combination with azacitidine at the indicated concentrations. Surface levels of CD11b were determined 72 hours post-treatment (FIGS. 6A, 6C, 6E), and apoptosis was assessed 96 hours post-treatment (FIGS. 6B, 6D, 6F).

[2] = test system: HL-60, Kasumi-1 and NB4; assay: Surface CD11b by FACS in three AML cell lines; type: cell-based; details: single agent; 72 hours; all three cell lines
Procedure: as §1
(§3) FIGS. 10A-F show the treatment of the following AML cell lines: Kasumi-1 (FIGS. 10A and 10B), HL-60 (FIGS. 10C and 10D) and NB4 (FIGS. 10E and 10F), with indicated doses of compounds. FIGS. 10A, 10C, and 10E show surface levels of myeloid differentiation marker CD11b determined by FACS at 72 h post-treatment. […] FIGS. 10B, 10D, and 10F show the assessment of apoptosis by FACS (see, e.g., FIG. 9C).

[3] = test system: Kasumi-1; assay: Surface CD11b by FACS in Kasumi-1; type: cell-based; details: combination with azacitidine vs single agent, 72 hours
Procedure: as §1, §2

[4] = test system: NB4; assay: Apoptosis by Annexin V / propidium iodide flow cytometry in NB4; type: cell-based; details: 96 hours; for apoptotic cells: combination with azacitidine vs single agent
Procedure: as §1
FIGS. 7A-F show the combination of HDAC inhibitors and azacitidine in the NB4 cell line. Briefly, cells were treated with DMSO, Compound B, Compound A, or Compound E as single agent or in combination with azacitidine at the indicated concentrations. Surface levels of CD11b were determined 72 hours post-treatment (FIGS. 7A, 7C, 7E), and apoptosis was assessed 96 hours post-treatment (FIGS. 7B, 7D, 7F).

[5] = test system: HL-60, Kasumi-1 and NB4; assay: Apoptosis by Annexin V / propidium iodide flow cytometry in three AML cell lines; type: cell-based; details: single agent; 96 hours; HL-60, Kasumi-1, NB4
Procedure: as §1, §3

[6] = test system: HL-60; assay: Surface CD11b by FACS in HL-60; type: cell-based; details: combination with azacitidine vs single agent, 96 hours
Procedure: as §1
(§4) FIGS. 5A-F show the combination of HDAC inhibitors and azacitidine in the HL-60 cell line. Briefly, cells were treated with DMSO, Compound B, Compound A, or Compound E as a single agent or in combination with azacitidine for 96 hours. Surface levels of CD11b (FIGS. 5A, 5C, 5E) and apoptosis (FIGS. 5B, 5D, 5F) was assessed by flow cytometry, as in FIG. 4.

[7] = test system: HL-60; assay: Apoptosis by Annexin V / propidium iodide flow cytometry in HL-60; type: cell-based; details: 96 hours; for apoptotic cells: combination with azacitidine vs single agent
Procedure: as §1, §4

[8] = test system: MV4-11; assay: Surface CD11b by FACS in MV4-11; type: cell-based; details: 72 h
Procedure: (§5) The distribution of cells among G0/G1 phase, G2/M phase, S phase and subG1 phase was determined. […] The relative fraction of cells that were live, in early apoptosis, in late apoptosis, or dead was then determined.
(§6) MV4-11 cells were treated with Compound E or with Compound A or with Compound B as single agent or in combination with azacitidine at indicated doses. FIGS. 12A, 12C, and 12E show surface levels of CD11b determined by FACS at 72 h post-treatment. FIGS. 12B, 12D, and 12F show assessment of apoptosis by FACS (as in, e.g., FIG. 9C) at 96 h post-treatment.
(§7) FIG. 17. […] (A) Indicated AML cell lines were exposed to increasing concentrations of Compound J to confirm their sensitivity to HDAC1/2 inhibition. (B-D) MV4-11 cells were treated with indicated concentrations of compounds. (B) Surface levels of myeloid differentiation marker CD11b were determined by FACS at 72 h post-treatment. […] (C) Cell cycle was assessed by flow cytometry after incorporation of EdU and staining with Far Red at 72 h post-treatment. The distribution of cells among G0/G1 phase, G2/M phase, S phase and subG1 phase was determined. […] (D) Apoptosis was assessed by flow cytometry via measuring Annexin V binding and cellular permeability to propidium iodide at 96 h post-treatment. The relative fraction of cells that were live, in early apoptosis, in late apoptosis or dead was then determined.

[9] = test system: MV4-11; assay: Apoptosis by Annexin V / propidium iodide flow cytometry in MV4-11; type: cell-based; details: 96 h; for induction of apoptosis: combination with azacitidine; for apoptosis relative to control cells: single agent
Procedure: as §5, §6, §7

[10] = test system: HDAC1, HDAC2, HDAC3 and HDAC6; assay: HDAC selectivity of the inhibitor panel; type: biochemical; details: HDAC isoform(s) the inhibitor is selective for
Procedure: Compounds for testing are diluted in DMSO to 50 fold the final concentration and a ten point three fold dilution series is made. The compounds are diluted in assay buffer (50 mM HEPES, pH 7.4, 100 mM Kill, 0.001% Tween-20, 0.05% BASE, 20 μM TEC) to 6 fold their final concentration. The HDAC enzymes (purchased from BPS Biosciences) are diluted to 1.5 fold their final concentration in assay buffer. The dipeptide substrate and trypsin at 0.05 μM final concentration are diluted in assay buffer at 6 fold their final concentration. The final enzyme concentrations to use in these assays are 3.3 ng/ml (HDAC1), 0.2 ng/ml (HDAC2), 0.08 ng/ml (HDAC3) and 2 ng/ml (HDAC6). The final substrate concentrations to use are 16 μM (HDAC1), 10 μM (HDAC2), 17 μM (HDAC3) and 14 μM (HDAC6). Five μ1 of compound and 20 μl of enzyme are added to wells of a black, opaque 384 well plate in duplicate. Enzyme and compound are incubated together at room temperature for 10 min. Five μ1 of substrate is added to each well, the plate is shaken for 60 seconds and placed into a Victor 2 microliter plate reader. The development of fluorescence is monitored for 60 min. and the linear rate of the reaction is calculated. The IC50 is determined using Graph Pad Prism by a four parameter curve fit.
The following HDAC inhibitors were used to evaluate the relationship between HDAC selectivity and the viability of AML cell lines upon exposure to the HDAC inhibitor: […]

SMILES: O=C(CCCCCCNC(=O)c1cnc(N(c2ccccc2)c2ccccc2)nc1)NO [Compound A, 2-(diphenylamino)-N-(7-(hydroxyamino)-7-oxoheptyl)pyrimidine-5-carboxamide]
- apoptotic cells [1]: synergistic increases
- percentage of CD11b positive cells [2]: increased the percentage of CD11b positive cells
- CD11b positive cells [3]: synergistic increases of CD11b positive cells
- apoptotic cells [4]: synergistic increases of apoptotic cells
- apoptosis relative to control cells [5]: increase in apoptosis relative to control cells; also recorded: increased apoptosis relative to control cells
- CD11b positive cells [6]: synergistic increases of CD11b positive cells
- apoptotic cells [7]: synergistic increases
- percentage of CD11b positive cells ([8]; combination with azacitidine): further increase of percentage of CD11b positive cells
- percentage of CD11b positive cells ([8]; single agent): increased the percentage of CD11b positive cells
- induction of apoptosis [9]: enhanced induction of apoptosis greater than either single agent
- apoptosis relative to control cells [9]: increase in apoptosis relative to control cells
- Selectivity [10]: HDAC6 (1/2/3)

SMILES: O=C(CCCCCCNC(=O)c1cnc(N(c2ccccc2)c2ccccc2Cl)nc1)NO [Compound B, 2-((2-chlorophenyl)(phenyl)amino)-N-(7-(hydroxyamino)-7-oxoheptyl)pyrimidine-5-carboxamide]
- apoptotic cells [1]: synergistic increases
- percentage of CD11b positive cells [2]: increased the percentage of CD11b positive cells
- CD11b positive cells [3]: synergistic increases of CD11b positive cells
- apoptotic cells [4]: synergistic increases of apoptotic cells
- apoptosis relative to control cells [5]: increase in apoptosis relative to control cells
- CD11b positive cells [6]: synergistic increases of CD11b positive cells
- apoptotic cells [7]: synergistic increases
- percentage of CD11b positive cells ([8]; combination with azacitidine): further increase of percentage of CD11b positive cells
- induction of apoptosis [9]: enhanced induction of apoptosis greater than either single agent
- Selectivity [10]: HDAC6 (1/2/3)

SMILES: Nc1ccc(-c2cccs2)cc1NC(=O)c1ccc2c(c1)cc(C1CC1)n2CCN1CCOCC1 [Compound E, N-(2-amino-5-(thiophen-2-yl)phenyl)-2-cyclopropyl-1-(2-morpholinoethyl)-1H-indole-5-carboxamide]
- apoptotic cells [1]: synergistic increases
- apoptosis ([1]; single agent): induced apoptosis
- percentage of CD11b positive cells [2]: increased the percentage of CD11b positive cells
- CD11b positive cells [3]: synergistic increases of CD11b positive cells
- apoptotic cells [4]: synergistic increases of apoptotic cells
- apoptosis ([4]; single agent): minimal effects
- apoptosis relative to control cells [5]: increased apoptosis relative to control cells
- CD11b positive cells [6]: synergistic increases of CD11b positive cells
- apoptotic cells [7]: synergistic increases
- apoptosis ([7]; single agent): induced apoptosis
- percentage of CD11b positive cells ([8]; combination with azacitidine): further increase of percentage of CD11b positive cells
- percentage of CD11b positive cells ([8]; single agent): increased the percentage of CD11b positive cells
- induction of apoptosis [9]: enhanced induction of apoptosis greater than either single agent
- apoptosis relative to control cells [9]: increase in apoptosis relative to control cells
- Selectivity [10]: selective for HDAC1/2
